Tested on: adult patients with persistent negative symptoms of schizophrenia
Type: in vivo, human
Excerpt: To assess changes in cognitive impairment associated with schizophrenia (CIAS), secondary endpoints included the 12-week change from baseline in the Brief Assessment of Cognition in Schizophrenia (BACS) composite score, a measure of cognition across multiple domains, and the Schizophrenia Cognition Rating Scale (SCORS) score, a measure of day-to-day cognitive functioning requiring input from an adult informant. Secondary endpoints were not corrected for multiplicity.
The BACS is specifically designed to measure treatment-related improvements in cognition and includes alternate forms. BACS is a reliable and sensitive measure of cognitive function in schizophrenia. The BACS is a cognition assessment battery that assesses 6 domains of cognitive function found to be consistently impaired in schizophrenia: verbal memory; working memory; motor speed; attention; executive functions; and verbal fluency. The primary measure from each test of the BACS is standardized by creating T-scores whereby the mean of the test session of a matched reference healthy participant is set to 50 and the standard deviation set to 10.

[1] = 500 mg once daily, preliminary analysis

O=c1[nH]nc(CCc2ccc(C(F)(F)F)cc2)cc1O [Compound (I), luvadaxistat] was tested, and the “BACS Composite Score, Week 6, Mean (SD)” value [1] was 35.6 (13.84), the “BACS Composite Score, Week 6, Median” value [1] was 38.0 and the “BACS Composite Score, Week 12, Mean (SD)” value [1] was 37.6 (13.86). For the same molecule, the “BACS Composite Score, Week 12, Median” value [1] was 40.0, the “BACS Motor Speed Cognition Domain, Change from Baseline to Week 6, Mean (SD)” value [1] was 0.5 (9.53) and the “BACS Motor Speed Cognition Domain, Change from Baseline to Week 6, Median” value [1] was 2.0. The “BACS Motor Speed Cognition Domain, Change from Baseline to Week 12, Mean (SD)” value [1] was 2.0 (6.58), the “BACS Motor Speed Cognition Domain, Change from Baseline to Week 12, Median” value [1] was 2.0 and the “BACS Motor Speed Cognition Domain, Week 6, Mean (SD)” value [1] was 40.7 (12.38). The “BACS Motor Speed Cognition Domain, Week 6, Median” value [1] was 41.0, the “BACS Motor Speed Cognition Domain, Week 12, Mean (SD)” value [1] was 41.3 (11.31) and the “BACS Motor Speed Cognition Domain, Week 12, Median” value [1] was 40.0. The “BACS Verbal Memory Cognition Domain, Change from Baseline to Week 6, Mean (SD)” value [1] was 1.8 (8.65), the “BACS Verbal Memory Cognition Domain, Change from Baseline to Week 6, Median” value [1] was 2.0 and the “BACS Verbal Memory Cognition Domain, Change from Baseline to Week 12, Mean (SD)” value [1] was 1.6 (10.04). The “BACS Verbal Memory Cognition Domain, Change from Baseline to Week 12, Median” value [1] was 0.0, the “BACS Verbal Memory Cognition Domain, Week 6, Mean (SD)” value [1] was 42.1 (12.06) and the “BACS Verbal Memory Cognition Domain, Week 6, Median” value [1] was 42.0. For the same molecule, the “BACS Verbal Memory Cognition Domain, Week 12, Mean (SD)” value [1] was 41.8 (13.82), the “BACS Verbal Memory Cognition Domain, Week 12, Median” value [1] was 41.0 and the “BACS Working Memory Cognition Domain, Change from Baseline to Week 6, Mean (SD)” value [1] was 0.5 (7.99). The “BACS Working Memory Cognition Domain, Change from Baseline to Week 6, Median” value [1] was 0.0, the “BACS Working Memory Cognition Domain, Change from Baseline to Week 12, Mean (SD)” value [1] was 1.7 (7.39) and the “BACS Working Memory Cognition Domain, Change from Baseline to Week 12, Median” value [1] was 0.0. For the same molecule, the “BACS Working Memory Cognition Domain, Week 6, Mean (SD)” value [1] was 40.1 (13.75), the “BACS Working Memory Cognition Domain, Week 6, Median” value [1] was 43.0 and the “BACS Working Memory Cognition Domain, Week 12, Mean (SD)” value [1] was 42.6 (13.20). For the same molecule, the “BACS Working Memory Cognition Domain, Week 12, Median” value [1] was 45.0, the “BACS Attention Cognition Domain, Change from Baseline to Week 6, Mean (SD)” value (500 mg, Week 6) was 0.9 (6.26) and the “BACS Attention Cognition Domain, Change from Baseline to Week 6, Median” value (500 mg, Week 6) was 0.0. For the same molecule, the “BACS Attention Cognition Domain, Week 6, Mean (SD)” value (500 mg, Week 6) was 35.5 (12.68), the “BACS Attention Cognition Domain, Week 6, Median” value (500 mg, Week 6) was 35.0 and the “BACS Executive Functions Cognition Domain, Change from Baseline to Week 6, Mean (SD)” value (500 mg, Week 6) was 1.3 (7.62). For the same molecule, the “BACS Executive Functions Cognition Domain, Change from Baseline to Week 6, Median” value (500 mg, Week 6) was 0.0, the “BACS Executive Functions Cognition Domain, Week 6, Mean (SD)” value (500 mg, Week 6) was 47.0 (10.95) and the “BACS Executive Functions Cognition Domain, Week 6, Median” value (500 mg, Week 6) was 51.0. The “BACS Verbal Fluency Cognition Domain, Change from Baseline to Week 6, Mean (SD)” value (500 mg, Week 6) was 0.8 (5.87), the “BACS Verbal Fluency Cognition Domain, Change from Baseline to Week 6, Median” value (500 mg, Week 6) was 1.0 and the “BACS Verbal Fluency Cognition Domain, Week 6, Mean (SD)” value (500 mg, Week 6) was 39.6 (10.14). The “BACS Verbal Fluency Cognition Domain, Week 6, Median” value (500 mg, Week 6) was 40.0, the “BACS Attention Cognition Domain, Adjusted Change from Baseline to Week 6, LS Mean (SE)” value (500 mg, Week 6, MMRM) was 1.0 (0.96) and the “BACS Attention Cognition Domain, Difference from Placebo for Week 6, LS Mean (SE)” value (500 mg, Week 6, MMRM) was 0.0 (1.15). For the same molecule, the “BACS Executive Functions Cognition Domain, Adjusted Change from Baseline to Week 6, LS Mean (SE)” value (500 mg, Week 6, MMRM) was 1.1 (1.29), the “BACS Executive Functions Cognition Domain, Difference from Placebo for Week 6, LS Mean (SE)” value (500 mg, Week 6, MMRM) was 2.3 (1.57) and the “BACS Verbal Fluency Cognition Domain, Adjusted Change from Baseline to Week 6, LS Mean (SE)” value (500 mg, Week 6, MMRM) was 0.5 (0.74). For the same molecule, the “BACS Verbal Fluency Cognition Domain, Difference from Placebo for Week 6, LS Mean (SE)” value (500 mg, Week 6, MMRM) was 0.3 (0.89), the “BACS Attention Cognition Domain, Change from Baseline to Week 12, Mean (SD)” value (500 mg, Week 12) was 3.1 (9.31) and the “BACS Attention Cognition Domain, Change from Baseline to Week 12, Median” value (500 mg, Week 12) was 2.0. For the same molecule, the “BACS Attention Cognition Domain, Week 12, Mean (SD)” value (500 mg, Week 12) was 38.0 (14.08), the “BACS Attention Cognition Domain, Week 12, Median” value (500 mg, Week 12) was 36.0 and the “BACS Executive Functions Cognition Domain, Change from Baseline to Week 12, Mean (SD)” value (500 mg, Week 12) was 2.0 (9.28). The “BACS Executive Functions Cognition Domain, Change from Baseline to Week 12, Median” value (500 mg, Week 12) was 0.0, the “BACS Executive Functions Cognition Domain, Week 12, Mean (SD)” value (500 mg, Week 12) was 48.5 (11.88) and the “BACS Executive Functions Cognition Domain, Week 12, Median” value (500 mg, Week 12) was 51.0. The “BACS Verbal Fluency Cognition Domain, Change from Baseline to Week 12, Mean (SD)” value (500 mg, Week 12) was 1.3 (6.95), the “BACS Verbal Fluency Cognition Domain, Change from Baseline to Week 12, Median” value (500 mg, Week 12) was 0.0 and the “BACS Verbal Fluency Cognition Domain, Week 12, Mean (SD)” value (500 mg, Week 12) was 40.6 (10.30). For the same molecule, the “BACS Verbal Fluency Cognition Domain, Week 12, Median” value (500 mg, Week 12) was 40.0, the “BACS Attention Cognition Domain, Adjusted Change from Baseline to Week 12, LS Mean (SE)” value (500 mg, Week 12, MMRM) was 3.1 (1.09) and the “BACS Attention Cognition Domain, Difference from Placebo for Week 12, LS Mean (SE)” value (500 mg, Week 12, MMRM) was 1.2 (1.33). The “BACS Executive Functions Cognition Domain, Adjusted Change from Baseline to Week 12, LS Mean (SE)” value (500 mg, Week 12, MMRM) was 2.0 (1.19), the “BACS Executive Functions Cognition Domain, Difference from Placebo for Week 12, LS Mean (SE)” value (500 mg, Week 12, MMRM) was 1.4 (1.42) and the “BACS Verbal Fluency Cognition Domain, Adjusted Change from Baseline to Week 12, LS Mean (SE)” value (500 mg, Week 12, MMRM) was 0.5 (0.91). The “BACS Verbal Fluency Cognition Domain, Difference from Placebo for Week 12, LS Mean (SE)” value (500 mg, Week 12, MMRM) was −0.5 (1.11).

Reference: patent US20240408086A1, “USE OF LUVADAXISTAT FOR THE TREATMENT OF COGNITIVE IMPAIRMENT” (TAKEDA PHARMACEUTICAL COMPANY LIMITED, priority 2021, published 2024)
